Where two headings read alike, the source gives them in different places.
Columns and labels:
[1] = test system: HCT116 WT cells; assay: HCT116 WT cell proliferation / viability (CellTiter-Glo, 6 days); type: cell-based; conditions: HCT116 WT cells, 6 days, CellTiter-Glo, read-out: HCT-116 WT IC50
In short: (§1)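 CellTiter-Glo luminescence, 6-day exposure, RPMI 1640 + 10% FBS. Dosing: 1:3 series (8-9 pts, top 1 or 10 μM) or 1:2 series (22 pts, top 10 or 50 μM), DMSO control. IC50 = 50% of control via curve fit.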

[2] = test system: HCT116 MTAP null cells; assay: HCT116 MTAP null cell proliferation / viability (CellTiter-Glo, 6 days); type: cell-based; conditions: for IC50: HCT116 MTAP null cells, 6 days, CellTiter-Glo, read-out: HCT-116 MTAP null IC50; for potency of enantiomer relative to the other enantiomer, measured by IC50 in HCT116 MTAP null cell viability assay: comparison of the two SFC-separated enantiomers
In short: as §1

Row | SMILES | IC50 ([1]; Homo sapiens, HCT-116, 144 h) | IC50 ([2]; HCT116-MTAP null, 144 h) | IC50 [1] | IC50 [2] | potency of enantiomer relative to the other enantiomer, measured by IC50 in HCT116 MTAP null cell viability assay [2]
1 | CO[C@@H]1CCOC[C@H]1N(Cc1ccc(C(F)(F)F)cn1)C(=O)c1ccc2nc(N)c3c(c2c1)COC3 (single isomer, unassigned) [Example 586] | 150 nM | 12 nM | – | – | –
2 | CO[C@H]1CCOC[C@@H]1N(Cc1ccc(C(F)(F)F)cn1)C(=O)c1ccc2nc(N)c3c(c2c1)COC3 (single isomer, unassigned) [Example 587] | 1710 nM | 76 nM | – | – | –
3 | CO[C@@H]1CCOC[C@H]1N(Cc1ccc(C#N)c(C)n1)C(=O)c1ccc2nc(N)c3c(c2c1)COC3 (single isomer, unassigned) [Example 588] | – | – | 1950 nM | 79 nM | –
4 | C[C@H](c1ccc(C(F)(F)F)cn1)N(C(=O)c1cc2c3c(c(N)nc2cn1)[C@@H](C)OC3)C1CC1 (single isomer, unassigned) [Example 589] | 815 nM | 29 nM | – | – | –
5 | C[C@@H]1OCc2c1c(N)nc1cnc(C(=O)N(C3CC3)[C@H](C)c3ccc(C(F)(F)F)cn3)cc21 (single isomer, unassigned) [Example 590] | > 50000 nM | 2230 nM | – | – | –
6 | Cc1cc2nc(N)c3cnn(C)c3c2cc1C(=O)N(C)[C@@H](C)c1ccc(F)cn1 (single isomer, unassigned) [Example 591] | 32100 nM | 563 nM | – | – | –
7 | Cc1cc2nc(N)c3cnn(C)c3c2cc1C(=O)N(C)[C@H](C)c1ccc(F)cn1 (single isomer, unassigned) [Example 592] | 2410 nM | 25 nM | – | – | –
8 | C[C@@H](c1ccc(F)cn1)N(C)C(=O)c1cc2c(cc1Cl)nc(N)c1cnn(C)c12 (single isomer, unassigned) [Example 594] | 29100 nM | 638 nM | – | – | –
9 | C[C@H](c1ncc(C(F)(F)F)cc1F)N(C)C(=O)c1cc2c3c(c(N)nc2cc1F)COC3 (single isomer, unassigned) [Example 595] | 676 nM | 10 nM | – | – | –
10 | CCN(Cc1ccc(C(F)(F)F)cn1)C(=O)c1ccc2nc(N)c3c(c2c1)CO[C@H]3CF (single isomer, unassigned) [Example 596] | 37300 nM | 888 nM | – | – | –
11 | C[C@H]1OCc2c1c(N)nc1cnc(C(=O)N(C)Cc3ccc(Br)cn3)cc21 (single isomer, unassigned) [Example 597] | 15200 nM | 200 nM | – | – | –
12 | C[C@H](c1ccc(C(F)(F)F)cc1)N(C)C(=O)c1cc2c(cn1)nc(N)c1cnn(C)c12 (single isomer, unassigned) [Example 598] | 415 nM | 8 nM | – | – | –
13 | C[C@@H](c1ccc(C(F)(F)F)cc1)N(C)C(=O)c1cc2c(cn1)nc(N)c1cnn(C)c12 (single isomer, unassigned) [Example 599] | 27200 nM | 536 nM | – | – | –
14 | C[C@H](c1ccc(C(F)(F)F)cn1)N(C)C(=O)c1ccc2nc(N)c3cnn(C)c3c2c1 (single isomer, unassigned) [Example 600] | 663 nM | 18 nM | – | – | –
15 | C[C@@H](c1ccc(C(F)(F)F)cn1)N(C)C(=O)c1ccc2nc(N)c3cnn(C)c3c2c1 (single isomer, unassigned) [Example 601] | 21200 nM | 997 nM | – | – | –
16 | C[C@H](c1ccc(C(F)(F)F)cn1)N(C)C(=O)c1cc2c(cc1F)nc(N)c1cnn(C)c12 (single isomer, unassigned) [Example 602] | 209 nM | 6 nM | – | – | –
17 | C[C@@H](c1ccc(C(F)(F)F)cn1)N(C)C(=O)c1cc2c(cc1F)nc(N)c1cnn(C)c12 (single isomer, unassigned) [Example 603] | 11800 nM | 276 nM | – | – | –

More lines, now with the values ahead:

Row | IC50 ([1]; Homo sapiens, HCT-116, 144 h) | IC50 ([2]; HCT116-MTAP null, 144 h) | IC50 [1] | IC50 [2] | potency of enantiomer relative to the other enantiomer, measured by IC50 in HCT116 MTAP null cell viability assay [2] | SMILES
18 | 24600 nM | 238 nM | – | – | – | C[C@H](c1ccc(F)cn1)N(C)C(=O)c1ccc2nc(N)c3cnn(C)c3c2c1 (single isomer, unassigned) [Example 604]
19 | 793 nM | 14 nM | – | – | – | C[C@H](c1ccc(C(F)(F)F)nn1)N(C)C(=O)c1cc2c(cc1F)nc(N)c1cnn(C)c12 (single isomer, unassigned) [Example 605]
20 | 263 nM | 19 nM | – | – | more potent | COc1ccc(CN(C(=O)c2ccc3nc(N)c4c(c3c2)CCC4)[C@H](C)c2ncccn2)nn1 (single isomer, unassigned) [Example 646]
21 | 4200 nM | 673 nM | – | – | less potent | COc1ccc(CN(C(=O)c2ccc3nc(N)c4c(c3c2)CCC4)[C@@H](C)c2ncccn2)nn1 (single isomer, unassigned) [Example 647]
22 | 2500 nM | 279 nM | – | – | – | C[C@@H](c1ncccn1)N(Cc1ccc(C(F)(F)F)nn1)C(=O)c1ccc2nc(N)c3c(c2c1)CCC3 (single isomer, unassigned) [Example 648]
23 | 181 nM | 14 nM | – | – | – | C[C@H](c1ncccn1)N(Cc1ccc(C(F)(F)F)nn1)C(=O)c1ccc2nc(N)c3c(c2c1)CCC3 (single isomer, unassigned) [Example 649]
24 | 811 nM | 53 nM | – | – | – | COC[C@H](C1CC1)N(Cc1ccc(Br)nn1)C(=O)c1ccc2nc(N)c3sccc3c2c1 (single isomer, unassigned) [Example 650]
25 | 3520 nM | 234 nM | – | – | – | COC[C@H](C1CC1)N(Cc1ccc(Br)nn1)C(=O)c1cnc2nc(N)c3c(c2c1)COC3 (single isomer, unassigned) [Example 651]
26 | > 10000 nM | 7070 nM | – | – | – | C[C@H](CF)N(Cc1ccc(C#N)cn1)C(=O)c1cc2c3c(c(N)nc2cn1)COC3 (single isomer, unassigned) [Example 820]
27 | > 50000 nM | 4190 nM | – | – | – | CCN(C(=O)c1ccc2nc(N)c3c(c2c1)COC3)[C@@H](C)c1ccc(C(F)(F)F)cn1 (single isomer, unassigned) [Example 821]
28 | 12000 nM | 323 nM | – | – | – | CCN(C(=O)c1ccc2nc(N)c3c(c2c1)COC3)[C@H](C)c1ccc(C(F)(F)F)cn1 (single isomer, unassigned) [Example 822]
29 | 16200 nM | 528 nM | – | – | – | CCN(C(=O)c1cc2c3c(c(N)nc2cn1)COC3)[C@H](C)c1ccc(C(F)(F)F)cn1 (single isomer, unassigned) [Example 823]
30 | 26300 nM | 2390 nM | – | – | – | CCN(C(=O)c1cc2c3c(c(N)nc2cn1)COC3)[C@@H](C)c1ccc(C(F)(F)F)cn1 (single isomer, unassigned) [Example 824]
31 | 276 nM | 22 nM | – | – | – | C[C@H](c1ccc(C(F)(F)F)cn1)N(C(=O)c1cc2c3c(c(N)nc2cn1)COC3)c1cnn(C)c1 (single isomer, unassigned) [Example 825]
32 | 27100 nM | 6720 nM | – | – | – | C[C@@H](c1ccc(C(F)(F)F)cn1)N(C(=O)c1cc2c3c(c(N)nc2cn1)COC3)c1cnn(C)c1 (single isomer, unassigned) [Example 826]
33 | 47200 nM | 1250 nM | – | – | – | C[C@@H]1OCc2c1c(N)nc1cnc(C(=O)N(Cc3ccc(C(F)(F)F)cn3)c3cnn(C)c3)cc21 (single isomer, unassigned) [Example 827]
34 | 294 nM | 26 nM | – | – | – | C[C@H]1OCc2c1c(N)nc1cnc(C(=O)N(Cc3ccc(C(F)(F)F)cn3)c3cnn(C)c3)cc21 (single isomer, unassigned) [Example 828]
35 | > 50000 nM | 7790 nM | – | – | – | C[C@@H]1OCc2c1c(N)nc1cnc(C(=O)N(Cc3ccc(C(F)(F)F)nn3)C3CCC3)cc21 (single isomer, unassigned) [Example 829]

Source: US20240101570A1 (AMGEN INC., priority 2020, published 2024)
